Results on 4 compounds are retold here after PubChem BioAssay (NCI).

Some test systems named below: RXF-631 renal; P388/ADR leukemia; SN12K1 renal; P388 leukemia.
Test in all cases: NCI tumour cell line growth inhibition, 48 h

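Results reflect a 48-hour exposure of cells in 96-well plates to compound at five concentrations. At the TGI there is no net growth.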

`O=C1C=CC2(C=C1)C[C@H](NC(=O)OCc1ccccc1)C(=O)O2`: the TGI in the experiment on RXF-631 renal was found to be 40.8 µM. Turning to `CCCCCCCCOC(=O)c1cc([N+](=O)[O-])c(Sc2ncnc3nc[nH]c23)c([N+](=O)[O-])c1`, the TGI in the experiment on P388/ADR leukemia was 0.458 µM; in the experiment with SN12K1 renal it was 2.64 µM; with P388 leukemia, 0.447 µM. Compound `O=c1ccnc2ccc3n[nH][nH]c3c12` had a TGI in the experiment with RXF-631 renal above 100 µM. `CSCCC(C(=O)O)N(CC1(O)OCC(O)C(O)C1O)N=O` (stereo unspecified) displayed a TGI in the experiment on RXF-631 renal above 100 µM.
